Laboratory results: paper PMC8069832, “New Amides and Phosphoramidates Containing Selenium: Studies on Their Cytotoxicity and Antioxidant Activities in Breast Cancer” (Antioxidants, 2021)
Like-named read-outs stand apart in the source and are kept apart here.

Experiments:
CCRF-CEM = test: cells; conditions: Homo sapiens, 48 h; for activity at 10 µM: read-out: Cell growth (%) CCRF-CEM; for GI50: read-out: GI50 CCRF-CEM; for CC50: read-out: LC50 CCRF-CEM; for IC (TGI): read-out: TGI CCRF-CEM
MCF-7 [1] = test: Autophagy and caspase inhibition assays (wortmannin, Z-VAD-FMK pretreatment); assay type: cell-based, human; conditions: I.1f 80 µM 72 h, I.2f 30 µM 24 h, II.2d 20 µM 24 h; for Compound-induced cell death after preincubation with wortmannin: 100 nM wortmannin 1 h; for Compound-induced cell death after preincubation with Z-VAD-FMK: 50 µM Z-VAD-FMK 1 h
Protocol: For autophagy and caspase inhibition assays, cells were pretreated with 100 nM of autophagy inhibitor (wortmannin, Santa Cruz) and 50 µM of pan-caspase inhibitor (Z-VAD-FMK, BD Pharmingen) for 1 h. The cells were treated with the compounds I.2f (30 µM) and II.2d (20 µM) for 24 h and I.1f (80 µM) for 72 h. Samples were processed following the same methodology stated above. DMSO was used as a negative control for both inhibitors.
Apoptosis and autophagy are considered as two recognized pathways for anticancer agents due to their effects on cell survival. In the next step, in order to investigate whether the cell death pathway is related to apoptosis or autophagy, we explored the effect of pre-treated cells with either an autophagy inhibitor (wortmannin) or a pan-caspase inhibitor (Z-VAD-FMK). According to the previous results, determinations were performed after treatment with 80 μM of I.1f for 72 h, 30 μM of I.2f for 24 h and 20 μM of II.2d for 24 h.

MCF-7 [2] = test: cells; conditions: Homo sapiens, MCF7, 48 h; for activity at 10 µM: read-out: Cell growth (%) MCF-7; for CC50: read-out: LC50 MCF-7; for IC (TGI): read-out: TGI MCF-7; for GI50: read-out: GI50 MCF-7, 48 h, average ± SEM
PC-3 = test: cells; assay type: cell-based; conditions: Homo sapiens; for LC50: read-out: LC50 PC-3; for GI50: read-out: GI50 PC-3; for IC (TGI): read-out: TGI PC-3
Protocol: (§1) Cell lines were provided by the European Collection of Cell Cultures (ECACC) or by the American Type Culture Collection (ATCC). Seven cell lines were used: MCF-7 (breast adenocarnicoma), 184B5 (nonmalignant, mammary gland derived), CCRF-CEM (lymphoblastic leukemia), HT-29 (colon carcinoma), HTB-54 (lung carcinoma), BEAS-2B (nonmalignant, derived from the bronchial epithelium) and PC-3 (prostate carcinoma). MCF-7, CCRF-CEM, HT-29, HTB-54, BEAS-2B and PC-3 cell lines were grown in RPMI medium (Gibco) supplemented with 10% fetal bovine serum (FBS; Gibco), 100 units/mL penicillin and […] streptomycin (Gibco). 184B5 cells were grown in DMEM/F12 medium supplemented with 5% FBS, 1 × ITS (Lonza), 100 nM hydrocortisone (Aldich), 2 mM sodium pyruvate (Lonza), 20 ng/mL EGF (Sigma-Aldrich), 0.3 nM trans-retinoic acid (Sigma-Aldrich), 100 units/mL penicillin and […] streptomycin. Cells were maintained at 37 °C and 5% CO2.
(§2) The cytotoxic effect of each substance was tested by the MTT method. Each compound was initially dissolved in DMSO at a concentration of 0.01 M, and serial dilutions were prepared with nonsupplemented medium. The cytotoxic effect of each compound was tested at 50 and 10 µM as a first screening. […]
(§3) A total of 1 × 10^4 cells/well in 96-well plates were treated with increasing concentrations of the corresponding compounds for 48 h at 37 °C in a humidified atmosphere containing 5% CO2. Then, cells were incubated with 50 µL of MTT (2 mg/mL stock) for 4 h. The medium was then removed by aspiration, and the formazan crystals were dissolved in […] of DMSO. […] Data were obtained from at least 3 independent experiments performed in quadruplicate. The standard error of the means (SEM) for the cytotoxic parameters was calculated applying the standard deviation formula to the mean values of each parameter for the three independent experiments performed.
(§4) . Cisplatin was used as a standard drug. […]. […] The presence of electron-withdrawing groups (-NO2, -CF3, -Cl) in the phenyl ring favored the cytotoxic activity in the amides, but in the phosphoramidates, the best results were obtained for aliphatic chains methoxy (II.1b, II.2b) and ethoxy (II.1d, II.2d). […].

HTB-54 = test: cells; assay type: cell-based; conditions: Homo sapiens; for CC50: read-out: LC50 HTB54; for GI50: read-out: GI50 HTB54; for IC (TGI): read-out: TGI HTB54
Protocol: as §1, §2, §3, §4

[3] = MTT cytotoxicity in nonmalignant mammary gland derived cells; assay type: cell-based; conditions: human
Protocol: as §1, §2, §3, §4
(§5) The lack of selectivity toward cancerous cells is one of the major issues during the discovery and development of new anticancer agents. Therefore, we evaluated the cytotoxic activity of our compounds against two cell lines derived from nonmalignant breast tissue (184B5) and no malignant bronchial epithelium (BEAS-2B) (Table 2). […].

184B5 = test: as above; assay type: cell-based; conditions: for GI50 / IC (TGI): Homo sapiens; for GI50: read-out: GI50 184B5; for IC (TGI): read-out: TGI 184B5
Protocol: as §1, §2, §3, §4, §5

BEAS-2B = test: MTT cytotoxicity in nonmalignant bronchial epithelium cells; assay type: cell-based; conditions: for GI50 / IC (TGI): Homo sapiens, BEAS-2B, 48 h; for GI50: read-out: GI50 BEAS-2B; for IC (TGI): read-out: TGI BEAS-2B; for Selectivity index (SI) = GI50 (BEAS-2B)/GI50 (HTB-54): lung
Protocol: as §1, §2, §3, §4, §5

[4] = as above; assay type: cell-based; conditions: human
Protocol: as §1, §2, §3, §4, §5

[5] = 184B5, nonmalignant cells, 48 h
[6] = nonmalignant cells, 48 h, read-out: LC50 184B5
[7] = nonmalignant cells, 48 h, read-out: LC50 BEAS-2B

O=C(Nc1ccc([Se][Se]c2ccc(NC(=O)c3ccc(C(F)(F)F)cc3)cc2)cc1)c1ccc(C(F)(F)F)cc1 [I.1f]
activity at 10 µM (CCRF-CEM): 36.5%
GI50 (CCRF-CEM): 4.7 ± 0.7 µM
CC50 (CCRF-CEM): 79.2 ± 4.1 µM
IC (TGI) (CCRF-CEM): 31.7 ± 1.8 µM
Compound-induced cell death after preincubation with wortmannin (MCF-7 [1]): prevented cell death
Compound-induced cell death after preincubation with Z-VAD-FMK (MCF-7 [1]): did not
activity at 10 µM (MCF-7 [2]): 9.1%
CC50 (MCF-7 [2]): 54.6 ± 0.7 µM
IC (TGI) (MCF-7 [2]): 13 ± 0.3 µM
LC50 (PC-3; PC-3, 48 h): 65 ± 0.6 µM
GI50 (PC-3; PC-3, 48 h, average ± SEM): 1.2 ± 1.5 µM
IC (TGI) (PC-3; PC-3, 48 h, average ± SEM): 32.9 ± 3.1 µM
CC50 (HTB-54; HTB-54, 48 h): 75.4 ± 1.7 µM
GI50 (HTB-54; HTB-54, 48 h, average ± SEM): 25.1 ± 3.1 µM
IC (TGI) (HTB-54; HTB-54, 48 h, average ± SEM): 50.2 ± 2.4 µM
LC50 (50% lethal concentration) at 48 h [3]: 92.3 µM
GI50 (184B5; [5]): 6.59 µM
IC (TGI) (184B5; [5]): 44 µM
GI50 (BEAS-2B; nonmalignant cells): 10.7 µM
IC (TGI) (BEAS-2B; nonmalignant cells): 41.8 µM
Selectivity index (SI) = GI50 (BEAS-2B)/GI50 (HTB-54) (BEAS-2B): 0.42
LC50 (50% lethal concentration) at 48 h [4]: 72.9 µM

N#C[Se]c1ccc(NC(=O)c2ccc(C(F)(F)F)cc2)cc1 [I.2f]
activity at 10 µM (CCRF-CEM): 54.6%
GI50 (CCRF-CEM): 7.3 ± 0.5 µM
CC50 (CCRF-CEM): > 100 µM
IC (TGI) (CCRF-CEM): > 100 µM
Compound-induced cell death after preincubation with wortmannin (MCF-7 [1]): prevented cell death
Compound-induced cell death after preincubation with Z-VAD-FMK (MCF-7 [1]): did not
activity at 10 µM (MCF-7 [2]): 44.8%
GI50 (MCF-7 [2]): < 1 µM
CC50 (MCF-7 [2]): 42.2 ± 0.8 µM
IC (TGI) (MCF-7 [2]): 6.2 ± 0.4 µM
GI50 (PC-3; PC-3, 48 h, average ± SEM): 28.5 ± 0.7 µM
LC50 (PC-3; PC-3, 48 h, average ± SEM): 77.7 ± 0.6 µM
IC (TGI) (PC-3; PC-3, 48 h, average ± SEM): 53.1 ± 0.6 µM
GI50 (HTB-54; HTB-54, 48 h, average ± SEM): 29.8 ± 1.5 µM
CC50 (HTB-54; HTB-54, 48 h, average ± SEM): 84.4 ± 5.2 µM
IC (TGI) (HTB-54; HTB-54, 48 h, average ± SEM): 57.1 ± 3.3 µM
LC50 (50% lethal concentration) [3, 6]: > 100 µM
GI50 (184B5; [5]): 16.6 µM
IC (TGI) (184B5; [5]): > 100 µM
GI50 (BEAS-2B; nonmalignant cells): 20.8 µM
IC (TGI) (BEAS-2B; nonmalignant cells): 47 µM
Selectivity index (SI) = GI50 (BEAS-2B)/GI50 (HTB-54) (BEAS-2B): 0.70
LC50 (50% lethal concentration) [4, 7]: 73.2 µM

CCOP(=O)(Nc1ccc([Se]C#N)cc1)OCC [II.2d]
activity at 10 µM (CCRF-CEM): -87.4%
GI50 (CCRF-CEM): 0.2 µM
CC50 (CCRF-CEM): 0.9 ± 0.1 µM
IC (TGI) (CCRF-CEM): 0.5 µM
Compound-induced cell death after preincubation with wortmannin (MCF-7 [1]): could not prevent cell death
Compound-induced cell death after preincubation with Z-VAD-FMK (MCF-7 [1]): prevented it
activity at 10 µM (MCF-7 [2]): -17.2%
GI50 (MCF-7 [2]): < 1 µM
CC50 (MCF-7 [2]): 8.4 ± 0.1 µM
IC (TGI) (MCF-7 [2]): 4.1 ± 0.1 µM
GI50 (PC-3; PC-3, 48 h): 1.9 ± 0.1 µM
LC50 (PC-3; PC-3, 48 h): 99.9 ± 9.5 µM
IC (TGI) (PC-3; PC-3, 48 h): 4.4 ± 0.1 µM
GI50 (HTB-54; HTB-54, 48 h): 1.6 ± 0.4 µM
CC50 (HTB-54; HTB-54, 48 h): 4.8 ± 0.2 µM
IC (TGI) (HTB-54; HTB-54, 48 h): 3.2 ± 0.3 µM
CC50 at 48 h [3, 6]: 8.93 µM
GI50 (184B5; 184B5, 48 h): 5.7 µM
IC (TGI) (184B5; 184B5, 48 h): 7.31 µM
Selectivity index (SI) = GI50 (184B5)/GI50 (MCF-7) (184B5; breast): 6.33
GI50 (BEAS-2B): 4.65 µM
IC (TGI) (BEAS-2B): 6.59 µM
Selectivity index (SI) = GI50 (BEAS-2B)/GI50 (HTB-54) (BEAS-2B): 2.85
LC50 (50% lethal concentration) at 48 h [4, 7]: 8.3 µM
